From patent publication US20240360146A1, “BRUTON'S TYROSINE KINASE AND MUTANT DEGRADER, COMPOSITION AND APPLICATION THEREOF” (HANGZHOU HEALZEN THERAPEUTICS CO., LTD., priority 2021, published 2024)

Target: T1, BTK (Homo sapiens, UniProt Q06187)
T1 construct: endogenous in cells; host or cells: Mino cells
Experiment: BTK degradation activity test in Mino cells
Format: cell-based
Settings: 16 h incubation, Western blot or Elisa
In short: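 Mino cells treated with a concentration series of compound for 16 h, then lysed; total protein by BCA. BTK quantified by Western blot or ELISA, degradation rate calculated against blank control, and DC50 fitted from the degradation curve.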

T1 sequence (Q06187 whole entry): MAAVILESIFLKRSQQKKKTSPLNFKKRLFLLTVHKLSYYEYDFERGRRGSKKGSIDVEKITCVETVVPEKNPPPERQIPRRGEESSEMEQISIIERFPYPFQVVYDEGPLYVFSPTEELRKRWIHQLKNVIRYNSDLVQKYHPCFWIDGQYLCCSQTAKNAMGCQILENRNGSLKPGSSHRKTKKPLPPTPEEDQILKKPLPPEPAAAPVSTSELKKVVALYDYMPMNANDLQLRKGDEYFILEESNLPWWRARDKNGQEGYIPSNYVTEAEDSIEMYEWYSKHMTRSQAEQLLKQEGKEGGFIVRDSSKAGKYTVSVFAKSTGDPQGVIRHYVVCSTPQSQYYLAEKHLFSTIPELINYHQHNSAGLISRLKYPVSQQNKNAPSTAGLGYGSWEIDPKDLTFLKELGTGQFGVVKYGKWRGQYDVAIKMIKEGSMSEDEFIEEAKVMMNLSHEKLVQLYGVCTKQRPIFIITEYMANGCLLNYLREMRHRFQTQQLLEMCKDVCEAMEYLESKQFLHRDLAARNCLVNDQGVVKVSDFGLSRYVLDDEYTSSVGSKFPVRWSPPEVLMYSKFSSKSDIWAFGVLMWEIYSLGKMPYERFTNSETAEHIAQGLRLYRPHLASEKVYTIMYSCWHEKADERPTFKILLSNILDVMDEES

SMILES | DC50
CN1C(=O)N(C2CCCN(c3cnc(C(N)=O)c(Nc4ccc(C5(C)CCN(C6CN(c7ccc8c(c7)C(=O)N(C7CCC(=O)NC7=O)C8=O)C6)CC5)cc4)n3)C2)CC12CCC2 (stereo not shown) [Compound 011, 3-((4-(1-(1-(2-(2,6-dioxopiperidin-3-yl)-1,3-dioxoisoindol-5-yl)azetidin-3-yl)-4-methylpiperidin-4-yl)phenyl)amino)-5-(3-(5-methyl-6-oxo-5,7-diazaspirocyclo[3.4]octan-7-yl)piperidin-1-yl)pyrazin-2-carboxamide] | < 1 nM
CN1CCN([C@@H]2CCCN(c3nnc(C(N)=O)c(Nc4ccc(C5CCN(C[C@@H]6CCN(c7ccc8c(c7)C(=O)N(C7CCC(=O)NC7=O)C8=O)C6)CC5)c(F)c4)n3)C2)C1=O (stereo partly drawn) [Compound 157, 5-((4-(1-(((3S)-1-(2-(2,6-dioxopiperidin-3-yl)-1,3-dioxoisoindolin-5-yl)pyrrolidin-3-yl)methyl)piperidin-4-yl)-3-fluorophenyl)amino)-3-((R)-3-(3-methyl-2-oxoimidazolin-1-yl)piperidin-1-yl)-1,2,4-triazin-6-carboxamide] | < 1 nM
CN1CCN(C2CC3CC2N(c2ccc(C(N)=O)c(Nc4ccc(C5CCN(C6CN(c7ccc8c(c7)C(=O)N(C7CCC(=O)NC7=O)C8=O)C6)CC5)cc4)n2)C3)C1=O (stereo not shown) [Compound 048, 2-((4-(1-(1-(2-(2,6-dioxopiperidin-3-yl)-1,3-dioxoisoindolin-5-yl)azetidin-3-yl)piperidin-4-yl)phenyl)amino)-6-(-6-(3-methyl-2-oxoimidazolin-1-yl)-2-azabicyclo[2.2.1]heptan-2-yl)nicotinamide] | < 1 nM
CN1CCN([C@@H]2CCCN(c3nnc(C(N)=O)c(Nc4ccc(N5CCN(CC6CCN(c7ccc(N8CCC(=O)NC8=O)c8cccnc78)CC6)CC5)c(F)c4)n3)C2)C1=O [Compound 199, (R)-5-((4-(4-((1-(5-(2,4-dioxotetrahydropyrimidin-1(2H)-yl)quinolin-8-yl)piperidin-4-yl)methyl)piperazin-1-yl)-3-fluorophenyl)amino)-3-(3-(3-methyl-2-oxoimidazolidin-1-yl)piperidin-1-yl)-1,2,4-triazin-6-carboxamide] | < 1 nM
CN1CCN([C@@H]2CCCN(c3nnc(C(N)=O)c(Nc4ccc(N5CCN(C[C@H]6CCN(c7ccc(N8CCC(=O)NC8=O)cc7)C6)CC5)c(F)c4)n3)C2)C1=O [Compound 151, 5-((4-(4-(((R)-1-(4-(2,4-dioxotetrahydropyrimidin-1(2H)-yl)phenyl)pyrrolidin-3-yl)methyl)piperazin-1-yl)-3-fluorophenyl)amino)-3-((R)-3-(3-methyl-2-oxoimidazolin-1-yl)piperidin-1-yl)-1,2,4-triazin-6-carboxamide] | < 1 nM
CC1(c2ccc(Nc3nc(N4CCCC(N5CCN(C6CCCCC6)C5=O)C4)cnc3C(N)=O)cc2)CCN(C2CN(c3ccc4c(c3)C(=O)N(C3CCC(=O)NC3=O)C4=O)C2)CC1 (stereo not shown) [Compound 003, 5-(3-(3-cyclohexyl-2-oxoimidazolin-1-yl)piperidin-1-yl)-3-((4-(1-(1-(2-(2,6-dioxopiperidin-3-yl)-1,3-dioxoisoindol-5-yl)azetidin-3-yl)-4-methylpiperidin-4-yl)phenyl)amino)pyrazin-2-carboxamide] | < 1 nM
CN1C(=O)N(C2CCCN(c3nnc(C(N)=O)c(Nc4ccc(C5CCN(CC6CCN(c7ccc8c(c7)C(=O)N(C7CCC(=O)NC7=O)C8=O)CC6)CC5)cc4)n3)C2)CC12CCC2 (stereo not shown) [Compound 069, 5-((4-(1-((1-(2-(2,6-dioxopiperidin-3-yl)-1,3-dioxoisoindol-5-yl)piperidin-4-yl)methyl)piperidin-4-yl)phenyl)amino)-3-(3-(5-methyl-6-oxo-5,7-diazaspirocyclo[3.4]octan-7-yl)piperidin-1-yl)-1,2,4-triazin-6-carboxamide] | < 1 nM
CN1CCN([C@@H]2CCCN(c3nnc(C(N)=O)c(Nc4ccc(C5CCN(C[C@H]6CCN(c7cc8c(cc7F)C(=O)N(C7CCC(=O)NC7=O)C8=O)C6)CC5)cc4)n3)C2)C1=O (stereo partly drawn) [Compound 156, 5-((4-(1-(((3R)-1-(2-(2,6-dioxopiperidin-3-yl)-6-fluoro-1,3-dioxoisoindolin-5-yl)pyrrolidin-3-yl)methyl)piperidin-4-yl)phenyl)amino)-3-((R)-3-(3-methyl-2-oxoimidazolin-1-yl)piperidin-1-yl)-1,2,4-triazin-6-carboxamide] | < 1 nM
NC(=O)c1nnc(N2CCCC(N3CCN(CC(F)(F)F)C3=O)C2)nc1Nc1ccc(C2CCN(CC3CCN(c4ccc5c(c4)C(=O)N(C4CCC(=O)NC4=O)C5=O)CC3)CC2)cc1 (stereo not shown) [Compound 057, 5-((4-(1-((1-(2-(2,6-dioxopiperidin-3-yl)-1,3-dioxoisoindol-5-yl)piperidin-4-yl)methyl)piperidin-4-yl)phenyl)amino)-3-(3-(2-oxo-3-(2,2,2-trifluoroethyl)imidazolin-1-yl)piperidin-1-yl)-1,2,4-triazin-6-carboxamide] | < 1 nM
CN1CCN([C@@H]2CCCN(c3nnc(C(N)=O)c(Nc4ccc(N5CCN(CC6CCN(c7ccc(N8CCC(=O)NC8=O)c(C(N)=O)c7)CC6)CC5)c(F)c4)n3)C2)C1=O [Compound 233, (R)-5-((4-(4-((1-(3-carbamoyl-4-(2,4-dioxotetrahydropyrimidin-1(2H)-yl)phenyl)piperidin-4-yl)methyl)piperazin-1-yl)-3-fluorophenyl)amino)-3-(3-(3-methyl-2-oxoimidazolidin-1-yl)piperidin-1-yl)-1,2,4-triazin-6-carboxamide] | < 1 nM
NC(=O)c1ncc(N2CCCC(N3CCN(C4CCCC4)C3=O)C2)nc1Nc1ccc(C2CCN(CC3CCN(c4cc5c(cc4F)C(=O)N(C4CCC(=O)NC4=O)C5=O)C3)CC2)cc1 (stereo not shown) [Compound 052, 5-(3-(3-cyclopentyl-2-oxoimidazolin-1-yl)piperidin-1-yl)-3-((4-(1-((1-(2-(2,6-dioxopiperidin-3-yl)-6-fluoro-1,3-dioxoisoindolin-5-yl)pyrrolidin-3-yl)methyl)piperidin-4-yl)phenyl)amino)pyrazin-2-carboxamide] | < 1 nM
NC(=O)c1ncc(N2CCCC(N3CCN(C4CCCC4)C3=O)C2)nc1Nc1ccc(C2CCN(CC3CCN(c4ccc5c(c4)C(=O)N(C4CCC(=O)NC4=O)C5=O)C3)CC2)cc1F (stereo not shown) [Compound 041, 5-(3-(3-cyclopentyl-2-oxoimidazolin-1-yl)piperidin-1-yl)-3-((4-(1-((1-(2-(2,6-dioxopiperidin-3-yl)-1,3-dioxoisoindolin-5-yl)pyrrolidin-3-yl)methyl)piperidin-4-yl)-2-fluorophenyl)amino)pyrazin-2-carboxamide] | < 1 nM
CN1CCN([C@@H]2CCCN(c3nnc(C(N)=O)c(Nc4ccc(N5CCN(CC#Cc6ccc7c8c(cccc68)C(=O)N7C6CCC(=O)NC6=O)CC5)c(F)c4)n3)C2)C1=O (stereo partly drawn) [Compound 248, 5-((4-(4-(3-(1-(2,6-dioxopiperidin-3-yl)-2-oxo-1,2-dihydrobenzo[cd]indol-6-yl)propan-2-yn-1-yl)piperazin-1-yl)-3-fluorophenyl)amino)-3-((R)-3-(3-methyl-2-oxoimidazolidin-1-yl)piperidin-1-yl)-1,2,4-triazin-6-carboxamide] | < 1 nM
CN1CCN(C2CC3CC2N(c2cnc(C(N)=O)c(Nc4ccc(C5CCN(C6CN(c7ccc8c(c7)C(=O)N(C7CCC(=O)NC7=O)C8=O)C6)CC5)cc4)n2)C3)C1=O (stereo not shown) [Compound 046, 3-((4-(1-(1-(2-(2,6-dioxopiperidin-3-yl)-1,3-dioxoisoindolin-5-yl)azetidin-3-yl)piperidin-4-yl)phenyl)amino)-5-(-6-(3-methyl-2-oxoimidazolin-1-yl)-2-azabicyclo[2.2.1]heptan-2-yl)pyrazin-2-carboxamide] | < 1 nM
CCN1CCN(C2CCCN(c3nnc(C(N)=O)c(Nc4ccc(C5CCN(CC6CCN(c7ccc8c(c7)C(=O)N(C7CCC(=O)NC7=O)C8=O)CC6)CC5)cc4)n3)C2)C1=O (stereo not shown) [Compound 054, 5-((4-(1-((1-(2-(2,6-dioxopiperidin-3-yl)-1,3-dioxoisooctyl-5-yl)piperidin-4-yl)methyl)piperidin-4-yl)phenyl)amino)-3-(3-(3-ethyl-2-oxyimidazolin-1-yl)piperidin-1-yl)-1,2,4-triazin-6-carboxamide] | < 1 nM
NC(=O)c1nnc(N2CCCC(N3CCN(c4ccccc4)C3=O)C2)nc1Nc1ccc(C2CCN(CC3CCN(c4ccc5c(c4)C(=O)N(C4CCC(=O)NC4=O)C5)CC3)CC2)cc1 (stereo not shown) [Compound 099, 5-((4-(1-((1-(2-(2,6-dioxopiperidin-3-yl)-3-oxoisoindol-5-yl)piperidin-4-yl)methyl)piperidin-4-yl)phenyl)amino)-3-(3-(2-oxo-3-phenylimidazolin-1-yl)piperidin-1-yl)-1,2,4-triazin-6-carboxamide] | < 1 nM
CN1CCN(C2CC3CC2N(c2nnc(C(N)=O)c(Nc4ccc(C5(C)CCN(C6CN(c7ccc8c(c7)C(=O)N(C7CCC(=O)NC7=O)C8=O)C6)CC5)cc4)n2)C3)C1=O (stereo not shown) [Compound 105, 5-((4-(1-(1-(2-(2,6-dioxopiperidin-3-yl)-1,3-dioxoisoindol-5-yl)azetidin-3-yl)-4-methylpiperidin-4-yl)phenyl)amino)-3-(6-(3-methyl-2-oxoimidazolin-1-yl)-2-azabicyclo[2.2.1]heptan-2-yl)-1,2,4-triazin-6-carboxamide] | < 1 nM
CC1(c2ccc(Nc3nc(N4CCCC(N5CCN(C6CCCC6)C5=O)C4)cnc3C(N)=O)cc2)CCN(C2CN(c3ccc(NC4CCC(=O)NC4=O)cn3)C2)CC1 (stereo not shown) [Compound 021] | < 1 nM
NC(=O)c1nnc(N2CCCC(N3CCN(c4ccccc4F)C3=O)C2)nc1Nc1ccc(C2CCN(CC3CCN(c4ccc5c(c4)C(=O)N(C4CCC(=O)NC4=O)C5=O)CC3)CC2)cc1 (stereo not shown) [Compound 065, 5-((4-(1-((1-(2-(2,6-dioxopiperidin-3-yl)-1,3-dioxoisoindol-5-yl)piperidin-4-yl)methyl)piperidin-4-yl)phenyl)amino)-3-(3-(3-(2-fluorophenyl)-2-oxoimidazolin-1-yl)piperidin-1-yl)-1,2,4-triazin-6-carboxamide] | < 1 nM
